Results: US20030224973A1, “Minimising body gain in insulin treatment” (priority 2002, published 2003)
Read-outs that look alike come from different tables or passages of the source.

Assays:
[1] = tested on: patients with type 1 diabetes; test: Example 3: 6-month open-label parallel trial, once daily insulin detemir vs NPH insulin, basal/bolus regimen with human soluble insulin; assay type: in vivo; conditions: for ANOVA of weight after 6 months of treatment, ITT, Mean (least square mean): once daily basal, human soluble insulin at meals; for body weight at End of trial, Mean: End of trial (6 months)
Description: All patients were on a basal/bolus insulin regimen with human soluble insulin as meal-related insulin. […] The trial included a screening visit to assess patient eligibility and a randomisation visit (maximum 3 weeks after the screening visit) followed by a six-month treatment period. In order to achieve glycaemic control, the investigator had contact with the patients at least every other working day during the first two weeks of treatment or as long as necessary to achieve glycaemic control. A post-treatment follow-up visit was performed 2-6 days after the last visit.
The study included 750 type 1 diabetic patients aged 18 years or above and having a HbAtc≦12%. […] The patients were to have no major diabetic complications or other significant diseases.

[2] = tested on: patients with type 1 diabetes; test: Example 6: 16-week three-group trial, insulin detemir at 12-hour intervals, insulin detemir morning and bedtime, NPH morning and bedtime, insulin aspart at meals; assay type: in vivo, human; conditions: for average body weight gained: Morn_Bed groups; for body weight at Baseline, Mean / body weight at End of trial, Mean: both detemir groups pooled; for body weight at End of trial, Mean: End of trial (16 weeks)
Protocol: A 16 week, multi-centre, multi-national, open, randomised three-group parallel study comparing administration of insulin detemir at 12-hour intervals, insulin detemir morning and bedtime and NPH morning and bedtime in patients with type 1 diabetes
All patients received insulin aspart at meals. The trial included a Screening Visit to assess patient's eligibility and a Randomisation Visit, followed by a treatment period 16 of weeks. A post-treatment follow-up Visit was carried out approximately 1 week after the last visit.
The study included 409 type 1 diabetic patients aged 18 or above and HbA1c≦12%. The patients had had diabetes >12 months and had been treated on a basal (twice daily)/bolus regimen ≧2 months using an intermediate/long-acting insulin as a basal insulin and fast-acting human insulin or insulin analogue as bolus insulin.

[3] = tested on: patients with type 1 diabetes; conditions: for ANOVA of weight after 6 months of treatment, ITT, Mean (least square mean): insulin aspart as bolus; for HbA, levels: After 6 months; for plasma glucose at 07:00: nightly plasma glucose profile, p<0.05
Description: One of the secondary objectives of the study was to compare the regimens in terms of the safety profile, including the body weight of the patients.
The analysis is based upon an ANOVA model with treatment as fixed effect and weight at baseline as covariate.

[4] = tested on: patients with type 1 diabetes; test: Example 2 b): 6-month extension trial (12 months of treatment), insulin detemir vs NPH insulin, IAsp as meal related insulin; assay type: in vivo, human; conditions: for ANOVA of weight after 12 months of treatment, ITT, Mean (least square mean): IAsp as meal related insulin; for body weight at End of trial, Mean: End of trial (12 months)
Description: A 6-month extension of a multi-centre, open-label, asymmetrically randomised, parallel trial.
Patients who agreed to participate in the extension period continued treatment without interruption.
Following completion of the 6-month initial period, the extension period included 3 visits (0, 3 and 6 months after the start of the extension period).
The patients were advised to maintain their usual diet and daily activities.
All patients who completed the 6-month treatment period in the trial described under Section a) above and who were able and willing to participate in the extension period were included. Thus, the Section b) trial included 316 patients.

[5] = tested on: adult patients with type 1 diabetes; test: Example 1 b): 6-month extension trial (12 months of treatment), insulin detemir vs NPH insulin, human soluble insulin as meal related insulin; conditions: for ANOVA of weight after 12 months of treatment, ITT, Mean (least square mean): human soluble insulin as meal related insulin; for body weight at End of trial, Mean: End of trial (12 months)
Description: (§1) All patients were on a basal (twice-daily)-bolus regimen with human soluble insulin as meal related insulin:
(§2) The analysis is based upon an ANOVA model with treatment and country as fixed effects and weight at baseline as covariate.

[6] = tested on: patients with type 2 diabetes; test: Example 4: 6-month open parallel trial, insulin detemir vs NPH insulin once or twice daily, basal/bolus regimen with NovoRapid; assay type: in vivo, human; conditions: for ANOVA of weight after 6 months of treatment, ITT, Mean (least square mean): NovoRapid with meals; for body weight at End of trial, Mean: End of trial (6 months)
Description: Multicentre, open, randomised, parallel trial comprising a screening visit and a randomisation visit followed by a six month treatment period of basal/bolus therapy with either insulin detemir or NPH once or twice daily as needed. The patients received NovoRapid® with meals as bolus insulin throughout the trial.
The study included 506 type 2 diabetic patients aged 35 years or above with type 2 diabetes for ≧12 months treated with insulin or insulin analogues for at least 2 months, with a HbA1c≦12.0%, a basal insulin dose ≧30% of the total daily insulin dose and no other clinically relevant diseases were included in the trial.

[7] = tested on: patients with type 1 diabetes; test: Example 5: 16-week three arm trial, insulin detemir morning and pre-dinner, insulin detemir morning and bedtime, NPH insulin morning and bedtime, insulin aspart with meals; assay type: in vivo, human; conditions: for body weight at Baseline, Mean / body weight at End of trial, Mean: both detemir groups pooled; for body weight at End of trial, Mean: End of trial (16 weeks)
Protocol: All patients received insulin aspart (IAsp) with meals. The trial included a Screening Visit to assess patient eligibility and a Randomisation Visit (maximum 2 weeks after the Screening Visit). The following 16 week treatment period included 5 visits. In addition, patients were contacted every second day in the first two weeks (or longer if necessary) to ensure that optimal basal insulin dose was achieved fast and smoothly. A post-treatment telephone Follow-up was performed approximately one week after the last visit.
The study included 400 type 1 diabetic patients aged 18 or above with a BMI of ≦[…] and HbA1c<12%. The patients had had diabetes ≧12 months and had been treated on a basal/bolus regimen ≧2 months with a basal insulin requirement of ≧30% of the total daily insulin dose, and a total daily basal insulin dose below 100 IU. Patients were to have no major diabetic complications or other significant diseases.

[8] = tested on: patients with type 1 diabetes; conditions: for ANOVA of weight after 6 months of treatment, ITT, Mean (least square mean): type 1 diabetes, human soluble insulin as bolus, baseline weight as covariate
Description: Material and Methods: A total of 460 patients with no clinically significant diseases or diabetic complications were exposed (287 men and 173 women).
as §2

[9] = tested on: adult patients with type 1 diabetes; conditions: in vivo
Description: as §1, §2

[10] = 16 weeks, Morn_Bed (morning and bedtime)
[11] = 6 months, difference between treatments
[12] = 12 months, difference between treatments
[13] = 12 months, not statistically significant

Substance: NPH insulin: comparator basal insulin in the trials [reference compound]
- average body weight gained during the trial ([1]; 6 months): 0.4 kg
- ANOVA of weight after 6 months of treatment, ITT, Mean (least square mean) ([1]; 6 months): 76.7 kg
- body weight at Baseline, Mean [1]: 76.1 kg
- body weight at End of trial, Mean [1]: 76.5 kg
- ANOVA of Weight after 16 Weeks of Treatment, Adjusted for Change in HbA1c, ITT, Mean (least square mean) [2, 10]: 76.04 kg
- average body weight gained ([2]; 16 weeks): 0.7 kg
- body weight at Baseline, Mean [2]: 74.5 kg
- body weight at End of trial, Mean [2]: 75.3 kg
- ANOVA of weight after 6 months of treatment, ITT, Mean (least square mean) ([3]; 6 months): 71.8 kg
- HbA, levels [3]: 7.64%
- plasma glucose at 07:00 [3]: 9.5 mM/L
- average body weight gained ([3]; over 6 months): 0.7 kg
- average body weight gained during the trial ([4]; 12 months): 1.2 kg
- ANOVA of weight after 12 months of treatment, ITT, Mean (least square mean) ([4]; 12 months): 72.8 kg
- body weight at Baseline, Mean [4]: 71.5 kg
- body weight at End of trial, Mean [4]: 72.7 kg
- ANOVA of weight after 12 months of treatment, ITT, Mean (least square mean) ([5]; 12 months): 76.9 kg
- weight gain ([5]; 12 months, statistically significant): 1.4 kg
- body weight at Baseline, Mean [5]: 75.8 kg
- body weight at End of trial, Mean [5]: 77.2 kg
- proportion of patients with serious adverse events ([5]; during 12 months): 13.4%
- increase of mean body weight ([6]; 6 months): 1.3 kg
- ANOVA of weight after 6 months of treatment, ITT, Mean (least square mean) ([6]; 6 months): 88.6 kg
- body weight at Baseline, Mean [6]: 89.7 kg
- body weight at End of trial, Mean [6]: 91.0 kg
- ANOVA of Weight after 16 Weeks of Treatment, Adjusted for Change in HbA1c, ITT, Mean (least square mean) [7, 10]: 76.40 kg
- body weight at Baseline, Mean [7]: 74.5 kg
- body weight at End of trial, Mean [7]: 75.3 kg
- average body weight gained during the trial ([8]; 6 months): 0.7 kg
- ANOVA of weight after 6 months of treatment, ITT, Mean (least square mean) ([8]; 6 months): 76.5 kg

Substance: N^εB29-tetradecanoyl des(B30) human insulin [Insulin detemir]
- average body weight lost during the trial ([1]; 6 months): 0.2 kg
- ANOVA of weight after 6 months, insulin detemir − NPH, Mean [1, 11]: -0.52 kg
- ANOVA of weight after 6 months of treatment, ITT, Mean (least square mean) ([1]; 6 months): 76.2 kg
- body weight at Baseline, Mean [1]: 76.5 kg
- body weight at End of trial, Mean [1]: 76.3 kg
- Weight, Pairwise Comparison, Mean Diff. Detemir Morn_Bed - NPH Morn_Bed ([2]; 16 weeks): -0.6 kg
- ANOVA of Weight after 16 Weeks of Treatment, Adjusted for Change in HbA1c, ITT, Mean (least square mean) ([2]; 16 weeks, 12 h_interval): 75.20 kg
- average change of body weight ([2]; 16 weeks, 12 h_interval group): maintained their weight
- ANOVA of Weight after 16 Weeks of Treatment, Adjusted for Change in HbA1c, ITT, Mean (least square mean) [2, 10]: 75.41 kg
- average body weight gained ([2]; 16 weeks): 0.2 kg
- Weight, Pairwise Comparison, Mean Diff. Detemir 12 h_interval - NPH Morn_Bed ([2]; 16 weeks, first comparison, p=0.0061): -0.8 kg
- Weight, Pairwise Comparison, Mean Diff. Detemir 12 h_interval - NPH Morn_Bed ([2]; 16 weeks, third comparison as printed, p=0.4772): -0.2 kg
- body weight at Baseline, Mean [2]: 76.3 kg
- body weight at End of trial, Mean [2]: 76.2 kg
- ANOVA of weight after 6 months of treatment, ITT, Mean (least square mean) ([3]; 6 months): 70.9 kg
- Fasting plasma glucose difference, insulin detemir vs NPH insulin ([3]; 6 months, not statistically significant, p=0.097): -0.76 mM
- difference in mean body weight between the groups ([3]; 6 months, statistically significant): 1 kg
- HbA, levels [3]: 7.60%
- Body weight (baseline adjusted) vs NPH insulin ([3]; at the end of the trial, p<0.001): significantly lower
- general safety profile between the two treatments ([3]; in vivo): similar
- plasma glucose at 07:00 [3]: 7.6 mM/L
- average body weight lost ([3]; over 6 months, not statistically significant): 0.2 kg
- shapes of the nightly plasma glucose profiles vs NPH insulin ([3]; p=0.05): smoother and more stable
- ANOVA of weight after 12 months of treatment, ITT, Mean (least square mean) ([4]; 12 months): 71.5 kg
- ANOVA of weight after 12 months, insulin detemir − NPH, Mean [4, 12]: -1.34 kg
- average body weight lost during the trial [4, 13]: 0.1 kg
- body weight at Baseline, Mean [4]: 71.4 kg
- body weight at End of trial, Mean [4]: 71.3 kg
- difference in body weight between the groups ([4]; after 12 months, statistically significant): 1.3 kg
- ANOVA of weight after 12 months, insulin detemir − NPH, Mean [5, 12]: -1.66 kg
- ANOVA of weight after 12 months of treatment, ITT, Mean (least square mean) ([5]; 12 months): 75.2 kg
- weight loss [5, 13]: 0.3 kg
- body weight at Baseline, Mean [5]: 76.6 kg
- body weight at End of trial, Mean [5]: 76.3 kg
- HbA1c ([5]; after 12 months of treatment): 7.9%
- difference in body weight between groups ([5]; after 12 months of treatment, p=0.002): 1.7 kg
- increase of mean body weight ([6]; 6 months): 0.4 kg
- ANOVA of weight after 6 months of treatment, ITT, Mean (least square mean) ([6]; 6 months): 87.8 kg
- ANOVA of weight after 6 months, insulin detemir − NPH, Mean [6, 11]: -0.79 kg
- body weight at Baseline, Mean [6]: 85.4 kg
- body weight at End of trial, Mean [6]: 85.8 kg
- proportion of patients with serious adverse events [9]: 9.1%
- risk of hypoglycemia during the night, relative risk (detemir/NPH) [9]: 0.71
- Weight, Pairwise Comparison, Mean Difference Detemir Morn_Bed - NPH Morn_Bed ([7]; 16 weeks): -0.6 kg
- Weight, Pairwise Comparison, Mean Difference Detemir Morn_Dinner - Detemir Morn_Bed ([7]; 16 weeks): -0.7 kg
- Weight, Pairwise Comparison, Mean Difference Detemir Morn_Dinner - NPH Morn_Bed ([7]; 16 weeks): -1.3 kg
- ANOVA of Weight after 16 Weeks of Treatment, Adjusted for Change in HbA1c, ITT, Mean (least square mean) [7, 10]: 75.81 kg
- ANOVA of Weight after 16 Weeks of Treatment, Adjusted for Change in HbA1c, ITT, Mean (least square mean) ([7]; 16 weeks, Morn_Dinner (morning and pre-dinner)): 75.12 kg
- Weight in both insulin detemir groups compared with NPH insulin ([7]; 16 weeks, statistically significant): lower
- body weight at Baseline, Mean [7]: 76.3 kg
- body weight at End of trial, Mean [7]: 76.2 kg
- 9-point blood glucose profiles, insulin detemir and NPH ([8]; 6 months): comparable
- average body weight lost during the trial ([8]; 6 months): 0.5 kg
- ANOVA of weight after 6 months of treatment, ITT, Mean (least square mean) ([8]; 6 months): 75.4 kg
- HbA1c absolute mean difference between treatments (insulin detemir-NPH) ([8]; after 6 months, 95% CI [−0.05, 0.22]): 0.08 % point
- number of patients with hypoglycaemic episodes between the two treatments ([8]; in vivo): not statistically significantly different
- safety profiles between the two treatments ([8]; in vivo): comparable
- intra-patient variation in fasting blood glucose (FBG) vs NPH ([8]; not statistically significant, p=0.06): tendency towards lower intra-patient variation
- difference in FPG between treatments ([8]; p=0.78): No statistically significant difference
